≈ marks a conversion by molar mass, not a printed value. Read-outs that look alike come from different tables or passages of the source. Some results are limits rather than exact numbers.

One experiment deals with VRE (strain D). It is filed as cell-based, enterococcus. Conditions: for development of resistance (passages after which resistance developed): up to 15 passages. As for the experimental part: (§1) The bacteria were grown in MH broth at 37° C. for these experiments. […] The resulting cultures were diluted 1:1000 and grown until the culture reached ˜300,000 cfu/mL. That culture was then further diluted 1:1000 and used to determine the next round of MIC values.

A further experiment concerns M. smegmatis MC2-155. As to the kind of experiment: Antibacterial MIC, double-dilution method. It is filed as cell-based. Particulars: Mycolicibacterium smegmatis, MC2155, strain K, mycobacterial, read-out: MIC. The method in brief:
(§2)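 Step one: single-point test of each compound at 500 μM. Step two: MIC determination across doubling dilutions.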

The test system of a further experiment is E. coli MC1061. As to the kind of experiment: Antibacterial MIC, double-dilution method. Type of experiment: cell-based. Particulars: Escherichia coli, strain G, Gram-negative, read-out: MIC. Put shortly:
as §2

A further experiment has as its system E. cloacae ATCC 13047. As to the kind of experiment: Antibacterial MIC, double-dilution method. It is filed as cell-based. Particulars: Enterobacter cloacae, ATCC13047, strain F, Gram-negative, read-out: MIC. Put shortly:
as §2

Another experiment concerns S. enterica ATCC 14028. As to the kind of experiment: Antibacterial MIC, double-dilution method. Type of experiment: cell-based. Particulars: Salmonella enterica, ATCC14028, strain J, Gram-negative, read-out: MIC. Put shortly: as §2
For another experiment, the system named is VRE. Put plainly: Antibacterial MIC, double-dilution method. Type of experiment: cell-based. Particulars: Enterococcus, strain D, Gram-positive, read-out: MIC. Put shortly: as §2
The subject of the next experiment is B. subtilis 168. As to the kind of experiment: Antibacterial MIC, double-dilution method. Type of experiment: cell-based. Conditions: Bacillus subtilis, strain A, Gram-positive. The method in brief:
as §2

Experiment [1] relates to L. monocytogenes ATCC 19115. As to the kind of experiment: Antibacterial MIC, double-dilution method. Particulars: Listeria monocytogenes, ATCC19115, strain B, Gram-positive, read-out: MIC. Type of experiment: cell-based. The method in brief: as §2
In the next experiment the test system is P. aeruginosa ATCC 27853. Put plainly: Antibacterial MIC, double-dilution method. Type of experiment: cell-based. Particulars: Pseudomonas aeruginosa, ATCC27853, strain I, Gram-negative, read-out: MIC. The method in brief:
as §2

Experiment [2] has as its system all bacterial strains tested. Put plainly: Antibacterial MIC, summary over the panel. Type of experiment: cell-based. Conditions: read-out: MIC, span over all bacterial strains tested. On the procedure: MIC values were determined against a variety of Gram-positive (strains A-D) and Gram-negative (E-J) bacterial and mycobacterial (K) strains using the double-dilution method, as previously published. Preliminary screening was performed using 500 μM of each compound.

For experiment [3], the system named is L. monocytogenes ATCC 19115 (strain B). It is filed as cell-based, Listeria monocytogenes. Particulars: for development of resistance (passages after which resistance developed): up to 15 passages. As for the experimental part:
as §1

Experiment [4] has as its system P. aeruginosa ATCC 27853 (strain I). Type of experiment: cell-based. Particulars: for development of resistance (passages after which resistance developed): up to 15 passages. On the procedure: as §1
A further experiment concerns MRSA (strain C). It is filed as cell-based, Staphylococcus aureus. Conditions: for development of resistance (passages after which resistance developed): up to 15 passages. On the procedure: as §1
The subject of a further experiment is C. albicans ATCC 64124. As to the kind of experiment: Antifungal MIC, CLSI M27-A3 microbroth dilution. It is filed as cell-based, Candida albicans. Conditions: Candida albicans, ATCC64124; C. albicans ATCC 64124, resistant to FLC, ITC, and VOR; converted from μg/mL; read-out: MIC. As for the experimental part:
(§3) In vitro MIC testing was performed according to the CLSI M27-A3 standard microbroth dilution methodology for the susceptibility testing of yeasts with minor modifications.

The test system of another experiment is C. albicans ATCC 90819. As to the kind of experiment: Antifungal MIC, CLSI M27-A3 microbroth dilution. It is filed as cell-based, Candida albicans. Conditions: Candida albicans, ATCC90819; C. albicans ATCC 90819, resistant to FLC, ITC, and VOR; converted from μg/mL; read-out: MIC. On the procedure:
as §3

Another experiment deals with C. albicans ATCC 1003. As to the kind of experiment: Antifungal MIC, CLSI M27-A3 microbroth dilution. Type of experiment: cell-based, Candida albicans. Conditions: Candida albicans, ATCC1003; C. albicans ATCC 1003; converted from μg/mL; read-out: MIC. On the procedure: as §3
The subject of the next experiment is C. albicans ATCC 2876. As to the kind of experiment: Antifungal MIC, CLSI M27-A3 microbroth dilution. Type of experiment: cell-based, Candida albicans. Conditions: Candida albicans, ATCC2876; C. albicans ATCC 2876, susceptible to FLC, ITC, and VOR; converted from μg/mL; read-out: MIC. On the procedure: as §3
Another experiment concerns C. albicans ATCC 1237. As to the kind of experiment: Antifungal MIC, CLSI M27-A3 microbroth dilution. It is filed as cell-based, Candida albicans. Conditions: Candida albicans, ATCC1237, C. albicans ATCC 1237, resistant to FLC, ITC, and VOR; converted from μg/mL; read-out: MIC. On the procedure:
as §3

The test system of a further experiment is C. albicans ATCC 2310. As to the kind of experiment: Antifungal MIC, CLSI M27-A3 microbroth dilution. Type of experiment: cell-based, Candida albicans. Particulars: Candida albicans, ATCC2310; C. albicans ATCC 2310, susceptible to FLC, ITC, and VOR; converted from μg/mL; read-out: MIC. On the procedure:
as §3

In experiment [5] the test system is C. albicans ATCC 10231. Put plainly: Antifungal MIC, CLSI M27-A3 microbroth dilution. Type of experiment: cell-based, Candida albicans. Conditions: Candida albicans, ATCC10231, C. albicans ATCC 10231, resistant to FLC, ITC, and VOR, read-out: MIC. As for the experimental part:
as §3

The subject of experiment [6] is C. albicans ATCC 10231. As to the kind of experiment: Intracellular ROS production, DCFH-DA fluorescence assay. It is filed as cell-based, Candida albicans. Particulars: 1 h at 35° C. From the text: We used the 2′,7′-dichlorodihydrofluorescein diacetate (DCFH-DA) dye as a probe to measure the production of ROS in yeast cells upon treatment with our compounds. DCFH-DA can easily cross the cell membranes and be hydrolyzed by cellular esterases to the non-fluorescent 2′,7′-dichlorodihydrofluorescein (DCFH), which can further be oxidized to the highly fluorescent 2′,7′-dichlorofluorescein (DCF) by the intracellular ROS. Five mL of RPMI 1640 medium were inoculated using a single colony of C. albicans ATCC 10231 (strain A) in a Falcon tube and grown overnight at 35° C. at 200 rpm. The overnight culture was diluted by adding 200 μL of yeast cells to 800 μL of the same medium. […] H2O2 at 1 mM was also used as a positive control. Cells were centrifuged and washed twice with PBS buffer (pH 7.2). Cells were resuspended in the same buffer and incubated with DCFH-DA (20 μg/mL) for 30 min in the dark. Afterwards, cells were centrifuged and washed with PBS buffer to remove excess DCFH-DA. Glass slides with 10-15 μL of each mixture were prepared and observed in bright field and fluorescence modes (FITC filter set, excitation and emission wavelengths of 488 and 512 nm, respectively) using a Zeiss Axovert 200M fluorescence microscope (FIG. 3).

Another experiment relates to MRSA. Put plainly: Antibacterial MIC, double-dilution method. It is filed as cell-based. Conditions: Staphylococcus aureus, strain C, Gram-positive, read-out: MIC. The method in brief: as §2
The subject of a further experiment is K. pneumoniae ATCC 27736. As to the kind of experiment: Antibacterial MIC, double-dilution method. Conditions: Klebsiella pneumoniae, ATCC27736, strain H, Gram-negative, read-out: MIC. Type of experiment: cell-based. The method in brief:
as §2

For experiment [7], the system named is C. albicans ATCC 10231. It is filed as cell-based, Candida albicans.
For experiment [8], the system named is C. albicans strains (panel of seven). Put plainly: Antifungal MIC, summary over the panel. Type of experiment: cell-based, Candida albicans. Put shortly: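 MIC endpoints were read by eye and taken as the minimum compound concentration producing complete inhibition compared with untreated growth. Testing followed the CLSI M27-A3 yeast microdilution standard, slightly modified.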

[9] abbreviates: after 15 serial passages at sub-inhibitory concentrations.

With `NCC[C@H](O)C(=O)N[C@@H]1C[C@H](N)[C@@H](O[C@H]2O[C@H](CN)[C@@H](O)[C@H](O)[C@H]2O)[C@H](O)[C@H]1O[C@H]1O[C@H](CO)[C@@H](O)[C@H](N)[C@H]1O` [AMK, amikacin, reference compound], the “development of resistance (passages after which resistance developed)” value amounted to 3 passages in the experiment with VRE (strain D), 15 passages in [3], 5 passages in [4] and 12 passages with MRSA (strain C). Moreover, the MIC in the experiment on M. smegmatis MC2-155 (converted from μM) amounted to 12.2 µg/mL; in the experiment on M. smegmatis MC2-155 (range 0.5 to 500 μM) it was 15.6 µM; with E. coli MC1061 (converted from μM) it was 24.5 µg/mL; in the experiment on E. coli MC1061 (range 0.5 to 500 μM) it was 31.3 µM; with E. cloacae ATCC 13047 (converted from μM), 48.9 µg/mL; with E. cloacae ATCC 13047 (range 0.5 to 500 μM), 62.5 µM. Further, the minimum inhibitory concentration (MIC) in the experiment with S. enterica ATCC 14028 (converted from μM) was 3 to 6.1 µg/mL; with S. enterica ATCC 14028 (range 0.5 to 500 μM) it was 3.9 to 7.8 µM; with VRE (converted from μM), 97.7 µg/mL; in the experiment with VRE (range 0.5 to 500 μM), 125 µM; with B. subtilis 168 (converted from μM), 3 to 12.2 µg/mL; with B. subtilis 168 (range 0.5 to 500 μM) it was 3.9 to 15.6 µM. Also, the MIC in experiment [1] (range 0.5 to 500 μM) was 3.9 µM; in the experiment on P. aeruginosa ATCC 27853 (converted from μM), 48.9 µg/mL; with P. aeruginosa ATCC 27853 (range 0.5 to 500 μM) it was 62.5 µM; in experiment [2] it was 3.9 to 125 µM (≈ 2.28 to 73.2 µg/mL).
On to `C/C(=N\NC(=N)N)c1ccc2c(c1)Cc1cc(/C(C)=N/NC(=N)N)ccc1-2.Cl.Cl` [Compound 4F, (2E,2′E)-2,2′-((9H-Fluorene-2,7-diyl)bis(ethan-1-yl-1-ylidene))bis(hydrazine-1-carboximidamide) dihydrochloride], for which the “increase in relative MIC values” (in the experiment on VRE (strain D) (setting [9]); in experiment [3] (setting [9]); in experiment [4] (setting [9]); in the experiment on MRSA (strain C) (setting [9])) was “one-fold” each time. Further, the “development of resistance (passages after which resistance developed)” value (in the experiment on VRE (strain D); in experiment [3]; in experiment [4]; in the experiment with MRSA (strain C)) was “did not develop resistance” in each case. Also, the minimum inhibitory concentration (MIC) in the experiment with C. albicans ATCC 64124 is 2.3 µM; with C. albicans ATCC 90819, 4.6 µM; in the experiment with C. albicans ATCC 1003 it was 2.3 µM; in the experiment with C. albicans ATCC 2876, 2.3 µM; in the experiment with C. albicans ATCC 1237, 4.6 µM; with C. albicans ATCC 2310, 2.3 µM. For the same compound, the minimum inhibitory concentration (MIC) with C. albicans ATCC 10231 [5] (converted from μg/mL) was 2.3 to 4.6 µM; in the experiment with C. albicans ATCC 10231 [5], 1 to 2 µg/mL; in the experiment on MRSA (converted from μM), 0.4 to 0.9 µg/mL; in the experiment with MRSA (range 0.5 to 500 μM) it was 1 to 2 µM; in the experiment on M. smegmatis MC2-155 (converted from μM) it was 0.4 µg/mL; in the experiment with E. coli MC1061 (converted from μM) it was 218 µg/mL. Besides, the minimum inhibitory concentration (MIC) in the experiment on E. coli MC1061 (range 0.5 to 500 μM) was 500 µM; in the experiment on K. pneumoniae ATCC 27736 (converted from μM), 13.6 to 27.2 µg/mL; in the experiment with K. pneumoniae ATCC 27736 (range 0.5 to 500 μM), 31.3 to 62.5 µM; in the experiment on S. enterica ATCC 14028 (converted from μM) it was 1.7 µg/mL; in the experiment on S. enterica ATCC 14028 (range 0.5 to 500 μM), 3.9 µM; in the experiment on VRE (converted from μM), 0.4 µg/mL. For the same compound, the minimum inhibitory concentration (MIC) against B. subtilis 168 (converted from μM) is 3.4 µg/mL; in the experiment on B. subtilis 168 (range 0.5 to 500 μM) it was 7.8 µM; in experiment [1] (converted from μM), < 0.2 µg/mL; in experiment [1] (range 0.5 to 500 μM), < 0.5 µM; with P. aeruginosa ATCC 27853 (converted from μM), 0.4 to 0.9 µg/mL; in the experiment on P. aeruginosa ATCC 27853 (range 0.5 to 500 μM), 1 to 2 µM. Also, the MIC in [8] (Candida albicans, all, most or majority of the fungal strains, read-out: MIC, span over C. albicans strains) lay within 1 to 3.9 µg/mL. In the experiment on C. albicans ATCC 10231 [6] (at 1× and 2× MIC values), the “intracellular ROS production” value is listed as “significantly increased intracellular ROS production”. In the experiment on C. albicans ATCC 10231 [7] (after 13 passages, sub-MIC drug concentrations), the “shift in relative MIC values” is reported as 2 fold. Further, the “development of drug resistance” value in the experiment with C. albicans ATCC 10231 [7] (repeated treatments with sub-MIC drug concentrations) is “unable to develop drug resistance”. Also, in experiment [8] (against all fungal strains tested), the “antifungal activity in words” value is on record as “excellent antifungal activities”.
For `OO` [Compound H2O2, H2O2, reference compound], the “intracellular ROS production” value in the experiment with C. albicans ATCC 10231 [6] (positive control at 1 mM) is on record as “induced ROS production”.

The values above are taken from US10173968B2, “Bishydrazone-based antifungal agents” (University of Kentucky Research Foundation, priority 2016, dated 2019).
